# Data reported in PMC6155272, “Chroman-4-One Derivatives Targeting Pteridine Reductase 1 and Showing Anti-Parasitic Activity” (Molecules : A Journal of Synthetic Chemistry and Natural …, 2017).
# Assays:
# CYP2C19 = target: T1, CYP2C19 (Homo sapiens, UniProt P33261); assay: Cytochrome P450 2C19 assay (P450-Glo); format: in vitro ADME; conditions: for inhibition at 10 µM: human
# T1 construct: purchased Promega; host or cells: baculovirus-infected insect cells
# From the text: (§1) These assays made use of the PromegaP450-Glo™ (Madison, AL, USA) assay platform. Each CYP450 assay includes microsomal preparations of cytochromes from baculovirus-infected insect cells.
# A549 cells = assay: Cytotoxicity assay against A549 cells (CellTiter-Glo); format: cell-based; conditions: 100% = not cytotoxic, 0% = cytostatic
# Experimental: (§2) The assays were performed using the CellTiter-Glo assay from Promega (Madison, AL, USA). The assay detects cellular adenosine triphosphate (ATP) content with the amount of ATP being directly proportional to the number of cells present. The A549 cells were obtained from DSMZ (German Collection of Microorganisms and Cell Cultures, Braunschweig, Germany) and W1-38 cells were obtained from ATCC (ATCC® CCL-75™) and were grown in Dulbecco's Modified Eagle Medium (DMEM) from Capricorn Scientific GmbH, Ebsdorfergrund, Germany with fetal bovine serum (FBS) (10% v/v) from Capricorn Scientific GmbH, Ebsdorfergrund, Germany, streptomycin (100 μg/mL) and penicillin G (100 U/mL).
# CYP3A4 = target: T2, CYP3A4 (Homo sapiens, UniProt P08684); assay: Cytochrome P450 3A4 assay (P450-Glo); format: in vitro ADME; conditions: for inhibition at 10 µM: human
# T2 construct: purchased Promega; host or cells: baculovirus-infected insect cells
# T2 sequence (P08684 whole entry): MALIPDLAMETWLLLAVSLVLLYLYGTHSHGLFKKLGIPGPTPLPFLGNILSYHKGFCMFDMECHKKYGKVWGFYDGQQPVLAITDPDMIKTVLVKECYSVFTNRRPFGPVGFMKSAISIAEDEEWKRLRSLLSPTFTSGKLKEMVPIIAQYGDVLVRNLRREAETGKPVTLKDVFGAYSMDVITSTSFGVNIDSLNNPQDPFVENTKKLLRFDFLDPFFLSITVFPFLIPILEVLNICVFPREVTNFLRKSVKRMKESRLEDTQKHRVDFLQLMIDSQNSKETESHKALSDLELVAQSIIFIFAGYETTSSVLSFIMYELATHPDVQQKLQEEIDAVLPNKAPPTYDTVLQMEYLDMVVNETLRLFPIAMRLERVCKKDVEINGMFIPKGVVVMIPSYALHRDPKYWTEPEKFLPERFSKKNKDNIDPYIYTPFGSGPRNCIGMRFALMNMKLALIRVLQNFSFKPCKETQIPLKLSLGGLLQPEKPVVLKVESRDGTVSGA
# From the text: as §1
# W1-38 cells = assay: Cytotoxicity assay against W1-38 cells (CellTiter-Glo); format: cell-based; conditions: 100% = not cytotoxic, 0% = cytostatic
# Experimental: as §2
# [1] = target: T3, Leishmania major pteridine reductase 1 (LmPTR1) (Leishmania major, UniProt Q01782); assay: LmPTR1 enzyme reporter assay (cytochrome-c reduction, 550 nm); format: biochemical; conditions: for IC50: compounds 1–3, SD agreed to ±10%; for inhibition at 50 µM: read-out: % Inhibition LmPTR1 (50 μM)
# T3 construct: made in house
# T3 sequence (Q01782 1-288): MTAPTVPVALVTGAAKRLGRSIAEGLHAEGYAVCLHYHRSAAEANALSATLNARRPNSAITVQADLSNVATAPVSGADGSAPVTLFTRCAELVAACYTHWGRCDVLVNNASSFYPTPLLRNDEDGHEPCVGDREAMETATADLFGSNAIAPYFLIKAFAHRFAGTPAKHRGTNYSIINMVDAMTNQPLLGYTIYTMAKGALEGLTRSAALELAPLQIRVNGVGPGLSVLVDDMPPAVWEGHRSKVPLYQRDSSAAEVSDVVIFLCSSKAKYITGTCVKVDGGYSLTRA
# Experimental: TbPTR1 and LmPTR1 were purified as reported in literature. The enzyme kinetic profile of each selected protein was characterized by a spectrophotometric assay. The experimental assay consists of enzyme kinetic reaction monitoring at 340 nm for a total time of 180 s. The enzyme kinetic activity was measured at steady-state concentration of 7,8-dihydro-L-biopterin (H2B) and NADPH substrates equal to 50 and 120 µM and varying the enzyme concentration in the 0.001–0.006 µM and 0.005–0.010–0.015–0.020–0.025–0.030 µM range for Lm- and TbPTR1, respectively. The resulting kcat values were equal to 0.68 (s^−1) and 7.2 (s^−1) for Tb- and LmPTR1, respectively. For both TbPTR1 and LmPTR1, the Km value evaluation assay for H2B- and NADPH-substrates was performed in the 0.3-0.6–0.9–1.2–2.4–4.8 µM and 3.0–6.0–12.0–40.0–90.0–190.0 µM concentrations range, respectively.
# Compounds 1A–3A were evaluated as reported in our previous paper. The novel synthesized compounds 1–3 were tested towards TbPTR1 and LmPTR1 using the in vitro TbPTR1/LmPTR1 enzyme reporter assay. The experimental procedure consists of monitoring the non-enzymatic reduction reaction of cytochrome-c at 550 nm, related to the reduction reaction of H2B to tetrahydrobiopterin (H4B) by using NADPH as the cofactor. TbPTR1 and LmPTR1 enzyme activity was assayed in a buffer containing 20 mM sodium citrate (pH 6.0) in a final experimental volume equal to 600 µL. The final reaction mixture contained different substrates added in the following order: TbPTR1/LmPTR1 (0.018 µM/0.002 µM) in 20 mM Tris-HCl, glycerol 10% (v/v), pH 7.5; H2B at a final concentration equal to 0.3 µM; cytochrome-c (80 µM); Milli-Q water to a final volume of 600 µL and NADPH to a final concentration of 500 µM. Before the addition of NADPH, the reaction mixture was incubated for 10 min at 30 °C and 80 RPM. To allow the starting of the reaction, NADPH was added and the enzyme reaction was detected for a total time of 10 min at 30 °C, 550 nm. The inhibition profile characterization of compounds 1–3 was performed with a DU-640 spectrophotometer (Beckman Coulter, Brea, CA, USA). Each compound was assayed in duplicate against Tb/LmPTR1 target enzymes in the 0–10–25–50–80–150 µM concentrations range. At the different concentration values, the compounds were added to the reaction mixture (enzyme, H2B, cytochrome-c in 20 mM sodium citrate buffer and Milli-Q water) and incubated for 10 min at 30 °C, 80 RPM. The reaction was initiated by the addition of NADPH (500 µM) and monitored for 10 min at 30 °C, 550 nm. The absorbance values were processed by software analysis and transformed into the corresponding slopes. The percentages of inhibition and the IC50 values were determined.
# Aurora B kinase = target: T4, Aurora B kinase (Homo sapiens, UniProt Q96GD4); assay: Aurora B kinase assay (ADP-Glo); format: biochemical
# T4 construct: purchased Promega
# T4 sequence (Q96GD4 whole entry): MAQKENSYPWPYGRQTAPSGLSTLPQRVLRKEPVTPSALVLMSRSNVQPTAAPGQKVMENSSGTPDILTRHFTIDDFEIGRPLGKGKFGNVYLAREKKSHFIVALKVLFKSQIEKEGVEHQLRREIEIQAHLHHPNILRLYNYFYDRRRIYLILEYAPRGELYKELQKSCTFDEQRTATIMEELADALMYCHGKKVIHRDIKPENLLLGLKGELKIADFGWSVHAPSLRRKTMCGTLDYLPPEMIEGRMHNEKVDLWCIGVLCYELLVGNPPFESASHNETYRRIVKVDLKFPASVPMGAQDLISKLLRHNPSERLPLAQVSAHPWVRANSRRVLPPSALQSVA
# From the text: This assay made use of the ADP-Glo Kinase Enzyme System from Promega (Madison, AL, USA), which is a bioluminescent assay that employs firefly luciferase in a coupled-enzyme assay format to enable detection of adenosine diphosphate (ADP) levels from ATPase assays.
# [2] = tested on: L. infantum (MHOM/BR/1972/BH46) intracellular amastigotes; assay: Activity against L. infantum intramacrophage amastigotes (high-content imaging); format: cell-based, Leishmania infantum; conditions: 50 μM, amastigotes; for inhibition at 50 µM: Leishmania infantum, read-out: % inh. L. infantum (50 μM)
# Experimental: […] THP-1 cells were plated onto 384-well plates in Roswell Park Memorial Institute (RPMI) 1640 medium, Hyclone, GE Healthcare Life Sciences (Issaquah, WA, USA) containing 50 ng/mL phorbol 12-myristate 13-acetate (PMA, Sigma-Aldrich, Saint Louis, MS, USA), and incubated for 48 h. Then, 6 day-old promastigotes were added, at a ratio of 50 parasites per each THP-1 cell seeded earlier. After 24 h of infection, negative controls (0.5% DMSO), positive controls (10 μM amphotericin B) or compounds were added to the plate. Assay plates were incubated for 48 h, and then fixed with 4% paraformaldehyde and stained with Draq 5. The Operetta high-content automated imaging system was used to acquire images and the Harmony Software was optimized to quantify the host cell number, the infection ratio and the number of parasites per infected cell. The ratio between infected cells and total number of cells is then calculated, and defined as the Infection Ratio (IR). The raw data for IR values was normalized to negative—DMSO (mock)-treated infected cells—and positive (non-infected cells) controls to determine the normalized antiparasitic activity.
# T1 sequence (P33261 whole entry): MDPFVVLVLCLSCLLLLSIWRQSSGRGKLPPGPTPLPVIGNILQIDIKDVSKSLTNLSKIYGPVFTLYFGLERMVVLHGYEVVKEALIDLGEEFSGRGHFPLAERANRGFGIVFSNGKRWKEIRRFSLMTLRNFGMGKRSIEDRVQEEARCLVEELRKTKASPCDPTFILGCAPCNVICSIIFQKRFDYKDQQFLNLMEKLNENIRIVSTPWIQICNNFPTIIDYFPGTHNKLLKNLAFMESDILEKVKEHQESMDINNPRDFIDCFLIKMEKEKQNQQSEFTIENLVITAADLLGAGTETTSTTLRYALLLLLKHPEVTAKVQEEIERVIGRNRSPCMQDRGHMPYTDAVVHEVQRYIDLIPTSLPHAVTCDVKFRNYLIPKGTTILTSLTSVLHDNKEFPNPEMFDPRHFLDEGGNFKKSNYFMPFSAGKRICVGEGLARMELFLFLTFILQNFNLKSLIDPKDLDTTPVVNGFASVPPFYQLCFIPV
Compound,IC50 (CYP2C19),inhibition at 10 µM (CYP2C19),% Cell growth A549 (10 μM) (A549 cells),IC50 (CYP3A4),inhibition at 10 µM (CYP3A4),% Cell growth W1-38 (10 μM) (W1-38 cells),IC50 [1],inhibition at 50 µM [1],inhibition at 10 µM (Aurora B kinase),inhibition at 50 µM [2],% inh. L. infantum (50 μM) [2]
O=C1CC(c2cccc(O)c2)Oc2ccc(O)cc21 (stereo not shown) [Compound 1],1 µM,77.2%,137%,80 µM,< 15%,108%,57 µM,50.4%,< 15%,31%,
O=C1CC(c2ccc(O)cc2)Oc2ccc(O)cc21 (stereo not shown) [Compound 2],4 µM,44.5%,105%,> 100 µM,< 15%,91%,35 µM,56%,< 15%,29%,
O=C1CC(c2ccc(O)c(O)c2)Oc2ccc(O)cc21 (stereo not shown) [Compound 3],5 µM,2.68%,124%,65 µM,< 15%,86%,36 µM,69%,< 15%,3%,inactive
